Results: ChEMBL document CHEMBL1201862, “PubChem BioAssay data set” (2004)
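Assay format: 96-well plates, 48-hour exposure. Here, GI50 denotes the concentration required for 50% inhibition of growth.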 Activity calls are given as the source filed them. Cut-off read from the data, not from the text of the source: active = GI50 up to about 1.1 µM and inactive = higher.

How the values were obtained:
Test in all cases: NCI tumour cell line growth inhibition, 48 h
[1] = system: EKVX
[2] = system: TK-10
[3] = system: A498
[4] = system: K562
[5] = system: NCI-H460
[6] = system: LOX IMVI
[7] = system: MDA-MB-435
[8] = system: HCT-15
[9] = system: SNB-19
[10] = system: OVCAR-5
[11] = system: UACC-257
[12] = system: SK-MEL-2
[13] = system: NCI-H226
[14] = system: UACC-62
[15] = system: SN12C
[16] = system: SF-539
[17] = system: HOP-62
[18] = system: SK-MEL-5
[19] = system: COLO 205
[20] = system: SR
[21] = system: DU-145
[22] = system: RXF 393
[23] = system: MCF7
[24] = system: T47D
[25] = system: SF-295
[26] = system: ACHN
[27] = system: NCI-H522
[28] = system: KM12
[29] = system: SK-MEL-28
[30] = system: PC-3
[31] = system: A549
[32] = system: 786-0
[33] = system: CAKI-1
[34] = system: HOP-92
[35] = system: OVCAR-4
[36] = system: NCI-H23
[37] = system: RPMI-8226
[38] = system: MDA-N
[39] = system: MOLT-4
[40] = system: OVCAR-8
[41] = system: SK-OV-3
[42] = system: OVCAR-3
[43] = system: UO-31
[44] = system: BT-549
[45] = system: IGROV-1
[46] = system: U-251
[47] = system: NCI/ADR-RES
[48] = system: HCT-116
[49] = system: SW-620
[50] = system: M14
[51] = system: HT-29
[52] = system: CCRF-CEM
[53] = system: MDA-MB-231
[54] = system: HL-60
[55] = system: HCC 2998
[56] = system: Malme-3M
[57] = system: SF-268
[58] = system: SNB-75

Measured: GI50

O=C(O)CC(CC(=O)O)n1cccc1
inactive: [1] > 100 µM | [2] > 100 µM | [3] > 100 µM | [4] > 100 µM | [5] > 100 µM | [6] > 100 µM | [7] > 100 µM | [9] > 100 µM | [10] > 100 µM | [11] > 100 µM | [12] > 100 µM | [13] > 100 µM | [14] > 100 µM | [15] > 100 µM | [16] > 100 µM | [17] > 100 µM | [18] > 100 µM | [19] > 100 µM | [20] > 100 µM | [21] > 100 µM | [22] > 100 µM | [23] > 100 µM | [24] > 100 µM | [25] > 100 µM | [26] > 100 µM | [27] > 100 µM | [28] > 100 µM | [29] > 100 µM | [30] > 100 µM | [31] > 100 µM | [32] > 100 µM | [33] > 100 µM | [34] > 100 µM | [35] > 100 µM | [36] > 100 µM | [37] > 100 µM | [38] > 100 µM | [39] > 100 µM | [40] > 100 µM | [41] > 100 µM | [42] > 100 µM | [43] > 100 µM | [44] > 100 µM | [45] > 100 µM | [46] > 100 µM | [47] > 100 µM | [48] > 100 µM | [49] > 100 µM | [50] > 100 µM | [51] > 100 µM | [52] > 100 µM | [53] > 100 µM | [54] > 100 µM
> 100 µM: [8]

CS(=O)(=O)OCCn1c(=O)n(CCOS(C)(=O)=O)c(=O)n(CCOS(C)(=O)=O)c1=O
inactive: [1] > 100 µM | [2] > 100 µM | [55] > 100 µM | [3] > 100 µM | [4] > 100 µM | [5] > 100 µM | [6] 36.3 µM | [7] > 100 µM | [56] > 100 µM | [9] > 100 µM | [10] > 100 µM | [11] > 100 µM | [13] > 100 µM | [14] > 100 µM | [15] > 100 µM | [16] > 100 µM | [17] > 100 µM | [18] > 100 µM | [19] > 100 µM | [20] > 100 µM | [21] > 100 µM | [22] > 100 µM | [23] > 100 µM | [24] > 100 µM | [25] > 100 µM | [26] > 100 µM | [57] > 100 µM | [28] > 100 µM | [29] > 100 µM | [31] > 100 µM | [32] > 100 µM | [33] > 100 µM | [35] > 100 µM | [36] > 100 µM | [37] > 100 µM | [38] > 100 µM | [39] > 100 µM | [40] > 100 µM | [41] > 100 µM | [42] > 100 µM | [43] > 100 µM | [44] > 100 µM | [45] > 100 µM | [46] > 100 µM | [47] > 100 µM | [48] > 100 µM | [49] > 100 µM | [51] > 100 µM | [52] > 100 µM | [58] > 100 µM | [53] > 100 µM | [54] > 100 µM
> 100 µM: [8]

CC1(C)Cc2c(cnn2-c2ccc(C(F)(F)F)cc2)-c2[nH]c(-c3ccc(O)cc3)nc21
inactive: [1] 20.4 µM | [2] 16.5 µM | [55] 15.7 µM | [3] 20.4 µM | [4] 5.15 µM | [5] 14.4 µM | [6] 17.8 µM | [7] 17.2 µM | [56] 14.6 µM | [9] 16.6 µM | [10] 17.8 µM | [11] 16.4 µM | [13] 27.2 µM | [14] 16.2 µM | [15] 16.7 µM | [17] 21.4 µM | [18] 16.9 µM | [19] 13.7 µM | [20] 4.71 µM | [21] 17.5 µM | [22] 3.46 µM | [23] 14.2 µM | [24] 16.7 µM | [25] 16 µM | [26] 14.6 µM | [57] 9.16 µM | [27] 8.99 µM | [28] 13 µM | [29] 13.7 µM | [30] 16 µM | [31] 12.7 µM | [32] 3.32 µM | [33] 17.4 µM | [34] 17.9 µM | [35] 12.2 µM | [36] 18.2 µM | [38] 14.6 µM | [39] 2.05 µM | [40] 20.8 µM | [41] 21.4 µM | [42] 13.9 µM | [43] 15.3 µM | [44] 12.8 µM | [45] 19.4 µM | [46] 12.3 µM | [47] 19.5 µM | [48] 13.1 µM | [49] 14.5 µM | [50] 14.9 µM | [51] 3.99 µM | [52] 2.18 µM | [58] 8.81 µM | [53] 22.3 µM | [54] 4.72 µM
11.1 µM: [8]

CC(=O)Oc1cc(C(F)(F)F)ccc1C(=O)OC1(C)OC(=O)c2ccc(C(F)(F)F)cc2O1 (configuration not stated)
> 100 µM: [8]
inactive: [1] > 100 µM | [2] > 100 µM | [55] > 100 µM | [3] > 100 µM | [4] > 100 µM | [5] > 100 µM | [6] > 100 µM | [7] > 100 µM | [56] > 100 µM | [9] > 100 µM | [10] > 100 µM | [11] > 100 µM | [13] > 100 µM | [14] > 100 µM | [15] 97.5 µM | [16] > 100 µM | [17] > 100 µM | [19] > 100 µM | [21] > 100 µM | [22] > 100 µM | [23] > 100 µM | [24] > 100 µM | [25] > 100 µM | [26] > 100 µM | [57] > 100 µM | [27] > 100 µM | [28] > 100 µM | [29] > 100 µM | [30] > 100 µM | [31] > 100 µM | [32] > 100 µM | [33] > 100 µM | [34] > 100 µM | [35] > 100 µM | [36] > 100 µM | [38] > 100 µM | [39] > 100 µM | [40] > 100 µM | [41] > 100 µM | [42] > 100 µM | [43] > 100 µM | [44] > 100 µM | [45] > 100 µM | [46] > 100 µM | [47] > 100 µM | [48] > 100 µM | [49] > 100 µM | [50] > 100 µM | [51] > 100 µM | [52] > 100 µM | [58] 9.86 µM | [53] > 100 µM | [54] > 100 µM

CC1=CC(=O)C[C@]2(C)[C@@H](O)CC(C(C)CO)C[C@@H]12 (some centres not stated)
inactive: [1] > 100 µM | [2] > 100 µM | [55] > 100 µM | [3] > 100 µM | [5] > 100 µM | [6] > 100 µM | [7] > 100 µM | [9] > 100 µM | [10] > 100 µM | [11] > 100 µM | [12] > 100 µM | [13] > 100 µM | [14] > 100 µM | [15] > 100 µM | [16] > 100 µM | [17] > 100 µM | [18] > 100 µM | [19] > 100 µM | [21] > 100 µM | [22] > 100 µM | [23] > 100 µM | [24] > 100 µM | [25] > 100 µM | [26] > 100 µM | [57] > 100 µM | [28] > 100 µM | [29] > 100 µM | [31] > 100 µM | [32] > 100 µM | [33] > 100 µM | [34] > 100 µM | [35] > 100 µM | [36] > 100 µM | [38] > 100 µM | [39] > 100 µM | [40] > 100 µM | [41] > 100 µM | [42] > 100 µM | [43] > 100 µM | [44] > 100 µM | [45] > 100 µM | [46] > 100 µM | [47] > 100 µM | [48] > 100 µM | [49] > 100 µM | [50] > 100 µM | [51] > 100 µM | [58] > 100 µM | [53] > 100 µM | [54] > 100 µM
> 100 µM: [8]
